Reference: patent US11814376B2, “Hepatitis b core protein modulators” (Assembly Biosciences, Inc., priority 2015, dated 2023)

Key:
[1] = tested on: HBV viral load in AD38 cells; experiment: Viral load production in AD38 cells, quantitative PCR of the core sequence in supernatant; format: cell-based; conditions: Hepatitis B virus, 144 h, 10 μM compound, 6 days at 37° C., supernatant qPCR, relative to DMSO control; read-out: AD38 Viral Load (%) (VL with cmpd/VL in DMSO control) at 10 μM
[2] = tested on: AD38 cells; experiment: Viability of AD38 cells (Promega CellTiter-Glo); format: cell-based; conditions: 10 μM compound, 6 days, CellTiter-Glo luminescence normalized to DMSO control (100%)
How it was run: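 After 6 days of compound exposure at 37° C (compound added as 10× solution in 10% DMSO; 50,000 cells/well, collagen-coated), medium was replaced with tetracycline-free DMEM/F12, 2% FBS, 1% DMSO. CellTiter-Glo luminescence was then recorded and normalized to DMSO-treated wells as 100% viability.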

| Compound | activity at 10 µM [1] | AD38 Viability Normalized Result (cmpd/DMSO %) at 10 μM [2] |
| --- | --- | --- |
| CN(C)CCOc1ncc(CN(C)C(=O)c2ccc3c(c2)NC(=O)c2ccccc2O3)s1 [compound 1686, N-((2-(2-(dimethylamino)ethoxy)thiazol-5-yl)methyl)-N-methyl-11-oxo-10, 11-dihydrodibenzo [b, f] [1, 4] oxazepine-8-carboxamide] | 58.4% | 102% |
| CN(C)CCCOc1ncc(CN(C)C(=O)c2ccc3c(c2)NC(=O)c2ccccc2O3)s1 [compound 1687, N-((2-(3-(dimethylamino)propoxy)thiazol-5-yl)methyl)-N-methyl-11-oxo-10, 11-dihydrodibenzo [b, f] [1, 4] oxazepine-8-carboxamide] | 49.2% | 102% |
| CN(C)CCCOc1ncc(CNC(=O)c2ccc3c(c2)NC(=O)c2ccccc2O3)s1 [compound 1691, N-((2-(3-(dimethylamino)propoxy)thiazol-5-yl)methyl)-11-oxo-10, 11-dihydrodibenzo [b, f] [1, 4] oxazepine-8-carboxamide] | 77.1% | 89% |
| CN1CCN(c2ncc(CNC(=O)c3ccc4c(c3)NC(=O)c3ccccc3O4)s2)CC1 [compound 1694] | 61.1% | 91% |
| O=C(NCc1cnc(-c2ccc3[nH]cnc3c2)s1)c1ccc2c(c1)NC(=O)c1ccccc1O2 [compound 1695] | 22.9% | 102% |
| O=C(NCc1cnc(-c2ccc3[nH]ccc3c2)s1)c1ccc2c(c1)NC(=O)c1ccccc1O2 [compound 1696] | 0.8% | 109% |
| CN(C)c1ccc(-c2ncc(CNC(=O)c3ccc4c(c3)NC(=O)c3ccccc3O4)s2)cc1 [compound 1697] | 5.5% | 90% |
| CN(C)CCCOc1ccc(-c2ncc(CNC(=O)c3ccc4c(c3)NC(=O)c3ccccc3O4)s2)cc1 [compound 1698] | 2.7% | 91% |
| O=C(NCc1cnc(-c2ccc(O)c(F)c2)s1)c1ccc2c(c1)NC(=O)c1ccccc1O2 [compound 1700] | 9.2% | 105% |
| O=C(NCc1cnc(-c2cc(F)c(O)c(F)c2)s1)c1ccc2c(c1)NC(=O)c1ccccc1O2 [compound 1701] | 2.1% | 94% |
| O=C(NCc1cnc(-c2ccc(O)c(Cl)c2)s1)c1ccc2c(c1)NC(=O)c1ccccc1O2 [compound 1702] | 5.3% | 102% |
| O=C(NCc1cnc(-c2ccc(O)cc2Cl)s1)c1ccc2c(c1)NC(=O)c1ccccc1O2 [compound 1703] | 3.1% | 93% |
| O=C(NCc1cnc(-c2ccc(O)cc2F)s1)c1ccc2c(c1)NC(=O)c1ccccc1O2 [compound 1704] | 47.6% | 96% |
| COc1ccc(-c2ncc(CNC(=O)c3ccc4c(c3)NC(=O)c3ccccc3O4)s2)cn1 [compound 1705, N-((2-(6-methoxypyridin-3-yl)thiazol-5-yl)methyl)-11-oxo-10, 11-dihydrodibenzo [b, f] [1, 4] oxazepine-8-carboxamide] | 3.7% | 93% |
| O=C(NCc1cnc(-c2ccc(O)nc2)s1)c1ccc2c(c1)NC(=O)c1ccccc1O2 [compound 1706, N-((2-(6-hydroxypyridin-3-yl)thiazol-5-yl)methyl)-11-oxo-10, 11-dihydrodibenzo [b, f] [1, 4] oxazepine-8-carboxamide] | 57.5% | 103% |
| Nc1ccc(-c2ncc(CNC(=O)c3ccc4c(c3)NC(=O)c3ccccc3O4)s2)cn1 [compound 1707, N-((2-(6-aminopyridin-3-yl)thiazol-5-yl)methyl)-11-oxo-10, 11-dihydrodibenzo [b, f] [1, 4] oxazepine-8-carboxamide] | 10.7% | 88% |
| CN(C)c1ccc(-c2ncc(CNC(=O)c3ccc4c(c3)NC(=O)c3ccccc3O4)s2)cn1 [compound 1708] | 0.8% | 90% |
| O=C(NCc1cnc(-c2cnc(O)nc2)s1)c1ccc2c(c1)NC(=O)c1ccccc1O2 [compound 1709, N-((2-(2-hydroxypyrimidin-5-yl)thiazol-5-yl)methyl)-11-oxo-10, 11-dihydrodibenzo [b, f] [1, 4] oxazepine-8-carboxamide] | 51.1% | 94% |
| Nc1ncc(-c2ncc(CNC(=O)c3ccc4c(c3)NC(=O)c3ccccc3O4)s2)cn1 [compound 1710] | 39.9% | 96% |
| CN(C)c1ncc(-c2ncc(CNC(=O)c3ccc4c(c3)NC(=O)c3ccccc3O4)s2)cn1 [compound 1711] | 6.5% | 96% |
| CN1c2ccc(C(=O)NCc3cnc(-c4ccc(O)cc4)s3)cc2NC(=O)c2ccccc21 [compound 1732] | 18.8% | 100% |

| Compound | activity at 10 µM [1] | AD38 Viability Normalized Result (cmpd/DMSO %) at 10 μM [2] |
| --- | --- | --- |
| O=C(NCc1cnc(-c2ccc(O)cc2)s1)c1ccc2c(c1)NC(=O)c1ccccc1C2 [compound 1734] | 10.6% | 96% |
| Cl.NCc1cnc(-c2ncc(CNC(=O)c3ccc4c(c3)NC(=O)c3ccccc3S4)s2)s1 [compound 1735, N-((5′-(aminomethyl)-[2, 2′-bithiazol]-5-yl)methyl)-11-oxo-10, 11-dihydrodibenzo [b, f] [1, 4] thiazepine-8-carboxamide hydrochloride] | 3.1% | 92% |
| Cc1cc(-c2ncc(CNC(=O)c3ccc4c(c3)NC(=O)c3ccccc3O4)s2)ccc1O [compound 1736, N-((2-(4-hydroxy-3-methylphenyl)thiazol-5-yl)methyl)-11-oxo-10, 11-dihydrodibenzo [b, f] [1, 4] oxazepine-8-carboxamide] | 6.8% | 94% |
| O=C(NCc1cnc(-c2ccc3[nH]ncc3c2)s1)c1ccc2c(c1)NC(=O)c1ccccc1O2 [compound 1737] | 7.2% | 112% |
| Cc1cc(-c2ncc(CNC(=O)c3ccc4c(c3)NC(=O)c3ccccc3O4)s2)cc(C)c1O [compound 1738, N-((2-(4-hydroxy-3,5-dimethylphenyl)thiazol-5-yl)methyl)-11-oxo-10, 11-dihydrodibenzo [b, f] [1, 4] oxazepine-8-carboxamide] | 2.9% | 93% |
| O=C(NCc1cnc(-c2ccc(O)cc2)s1)c1ccc2c(c1)NC(=O)c1cc(F)ccc1S2 [compound 1746] | 5.6% | 92% |
| O=C(NCc1cnc(-c2ccc(O)cc2)s1)c1ccc2c(c1)NC(=O)c1ccc(F)cc1S2 [compound 1747] | 3% | 95% |
| O=C(NCc1cnc(-c2ccc(O)cc2)s1)c1cc2c(cc1F)Sc1ccccc1C(=O)N2 [compound 1749] | 54.3% | 109% |
| O=C1Nc2c(cc(F)c(C(=O)NCc3cnc(-c4ccc(O)cc4)s3)c2F)Sc2ccccc21 [compound 1750] | 1.1% | 107% |
| CCN1c2ccc(C(=O)NCc3cnc(-c4ccc(O)cc4)s3)cc2NC(=O)c2ccccc21 [compound 1751] | 2.8% | 18% |
| O=C(NCc1cnc(-c2ccc(O)cc2)s1)c1ccc2c(c1)NC(=O)c1c(F)cccc1S2 [compound 1752] | 29.8% | 98% |
| O=C(NCc1cnc(-c2ccc(O)cc2)s1)c1ccc2c(c1)NC(=O)c1cccc(F)c1S2 [compound 1753] | 2.4% | 97% |
| CC1c2ccc(C(=O)NCc3cnc(-c4ccc(O)cc4)s3)cc2NC(=O)c2ccccc21 (stereo not shown) [compound 1754] | 1.6% | 93% |
| Cc1c(C(=O)NCc2cnc(-c3ccc(O)cc3)s2)ccc2c1NC(=O)c1ccccc1S2 [compound 1755] | 0.4% | 93% |
| Cc1cc2c(cc1C(=O)NCc1cnc(-c3ccc(O)cc3)s1)NC(=O)c1ccccc1S2 [compound 1758] | 3.8% | 15% |
| O=C(NCc1cnc(-c2ccc(O)cc2)s1)c1ccc2c(c1)NC(=O)c1cc(Cl)ccc1S2 [compound 1760] | 6.4% | 94% |
| O=C(NCc1cnc(-c2ccc(O)cc2)s1)c1ccc2c(c1)NC(=O)c1ccc(Cl)cc1S2 [compound 1761] | 10.7% | 97% |
| Cc1nc(C)c(CNC(=O)c2ccc3c(c2)NC(=O)c2ccccc2S3(=O)=O)s1 [compound 1763] | 12.9% | 93% |
| NC(=O)c1ccc(-c2ncc(CNC(=O)c3ccc4c(c3)NC(=O)c3ccccc3S4(=O)=O)s2)cc1 [compound 1764, N-((2-(4-carbamoylphenyl)thiazol-5-yl)methyl)-11-oxo-10, 11 dihydrodibenzo [b, f] [1, 4] thiazepine-8-carboxamide 5,5-dioxide] | 1.1% | 107% |
| Cc1c(C(=O)NCc2cnc(C(F)(F)F)s2)ccc2c1NC(=O)c1ccccc1S2 [compound 1766] | 1.3% | 98% |
